In paper PMC3907542 (PLoS ONE, 2014):
Several values for one entry are separate records, joined by “and”; a condition that tells them apart may be missing. Identical values can stand only once. Like-named read-outs stand apart in the source and are kept apart here.

Key:
rat plasma proteins = experiment: Plasma protein binding of nifedipine in vitro with or without baicalin (ultrafiltration); format: in vitro ADME; conditions: double reciprocal plot, baicalin 250-2000 mg/L
[1] = Pharmacokinetics of baicalin in rats (plasma Cmax); format: in vivo; conditions: Sprague Dawley, rat, iv, read-out: C max of baicalin
Experimental: All pharmacokinetic data were obtained from 12 animals.
The concentration of baicalin in the blood samples was determined using a slightly modified high-performance liquid chromatography (HPLC) protocol with UV detection at 278 nm. Briefly, 100 µl methanol was added to 25 µl of the blood sample. […] The quantitation limits of baicalin in the rat plasma were 5.86 mg/L.

CYP3A [2] = conditions: Lineweaver-Burk plot, RLMs, nifedipine as substrate
Experimental: (§1) The preparation of rat liver microsome (RLM) suspensions were performed as previously reported [38]. […] Briefly, the incubation mixtures (total volume 0.2 ml) contained microsomal protein [...

plasma proteins = test system: plasma proteins; design: method as in earlier work; conditions: plasma protein binding; ref 1 (Tang Y et al); cited from earlier work
CYP3A [3] = experiment: in vitro; conditions: rat, rat liver microsomes, pH 7.4, probe nifedipine
Experimental: as §1

O=C(O)[C@H]1O[C@@H](Oc2cc3oc(-c4ccccc4)cc(=O)c3c(O)c2O)[C@H](O)[C@@H](O)[C@@H]1O [baicalin, 5,6-Dihydroxy-flavone-7-O-glucuronide]
type of interaction between nifedipine and baicalin for rat plasma proteins (rat plasma proteins): competitive | Cmax ([1]; baicalin 0.225 g/kg i.v.): 755 µg/mL | Cmax ([1]; baicalin 0.45 g/kg i.v.): 1280 µg/mL | type of inhibition of CYP3A (CYP3A [2]): competitive | association constant (KA) (plasma proteins): 121000 L/mol | Ki at 30 min (CYP3A [3]): 146 µM and 64.9 µg/mL
